Data as given in patent publication US7118895B2, “Process for producing aglycon by using diglycosidase and flavor-improved food containing the aglycon and converting agent to be used in the process” (Amano Enzyme Inc., priority 2000, dated 2006).

System: Crude diglycosidase
Assay: Examination of pH in the conversion into isoflavone aglycons by diglycosidase using soybean materials
Type: biochemical, Penicillium multicolor IAM7153
Parameters: Decomposition efficiency of genistin family in soymilk / Decomposition efficiency of genistin family in defatted soybean / Decomposition efficiency of daidzin family in defatted soybean: concentration or dose not given beside the values
Conditions: for Decomposition efficiency of daidzin family in roasted soy flour: 55° C.
In short: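 Suspensions of 50 mg roasted soy flour, soymilk, defatted soybean or concentrated soy protein were brought to pH 2 to 11 with HCl or NaOH and reacted at 55° C with crude diglycosidase (enzyme solution at 1.88 AU/mL, same pH). Ethanol-stopped samples at 0, 1, 3 and 6 h were analysed by HPLC.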

[1] = pH4.8, heat treatment of enzyme: no, reaction time 0 h
[2] = pH4.8, heat treatment of enzyme: no, reaction time 1 h
[3] = pH4.8, heat treatment of enzyme: no, reaction time 3 h
[4] = pH4.8, heat treatment of enzyme: no, reaction time 6 h
[5] = pH4.8, heat treatment of enzyme: yes, reaction time 6 h
[6] = pH6.6, heat treatment of enzyme: no, reaction time 0 h
[7] = pH6.6, heat treatment of enzyme: no, reaction time 1 h
[8] = pH6.6, heat treatment of enzyme: no, reaction time 3 h
[9] = pH6.6, heat treatment of enzyme: no, reaction time 6 h
[10] = pH6.6, heat treatment of enzyme: yes, reaction time 6 h

Decomposition efficiency of daidzin family in concentrated soybean protein (pH1.6, heat treatment of enzyme: no, reaction time 0 h): not detected | Decomposition efficiency of daidzin family in concentrated soybean protein (pH1.6, heat treatment of enzyme: no, reaction time 1 h): not detected | Decomposition efficiency of daidzin family in concentrated soybean protein (pH1.6, heat treatment of enzyme: no, reaction time 3 h): not detected | Decomposition efficiency of daidzin family in concentrated soybean protein (pH1.6, heat treatment of enzyme: no, reaction time 6 h): not detected | Decomposition efficiency of daidzin family in concentrated soybean protein (pH1.6, heat treatment of enzyme: yes, reaction time 6 h): not detected | Decomposition efficiency of daidzin family in roasted soy flour (pH2, heat treatment of enzyme no, reaction time 0 h): not detected | Decomposition efficiency of daidzin family in roasted soy flour (pH2, heat treatment of enzyme no, reaction time 1 h): not detected | Decomposition efficiency of daidzin family in roasted soy flour (pH2, heat treatment of enzyme no, reaction time 3 h): not detected | Decomposition efficiency of daidzin family in roasted soy flour (pH2, heat treatment of enzyme no, reaction time 6 h): not detected | Decomposition efficiency of daidzin family in roasted soy flour (pH2, heat treatment of enzyme yes, reaction time 6 h): not detected | Decomposition efficiency of daidzin family in soymilk (pH2.3, heat treatment of enzyme: no, reaction time 0 h): 55.1% | Decomposition efficiency of daidzin family in soymilk (pH2.3, heat treatment of enzyme: no, reaction time 1 h): 54.7% | Decomposition efficiency of daidzin family in soymilk (pH2.3, heat treatment of enzyme: no, reaction time 3 h): 51.1% | Decomposition efficiency of daidzin family in soymilk (pH2.3, heat treatment of enzyme: no, reaction time 6 h): 48.5% | Decomposition efficiency of daidzin family in soymilk (pH2.3, heat treatment of enzyme: yes, reaction time 6 h): 51.0% | Decomposition efficiency of daidzin family in defatted soybean (pH2.6, heat treatment of enzyme: no, reaction time 0 h): 41.0% | Decomposition efficiency of daidzin family in defatted soybean (pH2.6, heat treatment of enzyme: no, reaction time 1 h): 41.2% | Decomposition efficiency of daidzin family in defatted soybean (pH2.6, heat treatment of enzyme: no, reaction time 3 h): 41.8% | Decomposition efficiency of daidzin family in defatted soybean (pH2.6, heat treatment of enzyme: no, reaction time 6 h): 40.2% | Decomposition efficiency of daidzin family in defatted soybean (pH2.6, heat treatment of enzyme: yes, reaction time 6 h): 38.9% | Decomposition efficiency of daidzin family in concentrated soybean protein (pH2.7, heat treatment of enzyme: no, reaction time 0 h): not detected | Decomposition efficiency of daidzin family in concentrated soybean protein (pH2.7, heat treatment of enzyme: no, reaction time 1 h): not detected | Decomposition efficiency of daidzin family in concentrated soybean protein (pH2.7, heat treatment of enzyme: no, reaction time 3 h): not detected | Decomposition efficiency of daidzin family in concentrated soybean protein (pH2.7, heat treatment of enzyme: no, reaction time 6 h): not detected | Decomposition efficiency of daidzin family in concentrated soybean protein (pH2.7, heat treatment of enzyme: yes, reaction time 6 h): not detected | Decomposition efficiency of daidzin family in roasted soy flour (pH3, heat treatment of enzyme no, reaction time 0 h): not detected | Decomposition efficiency of daidzin family in roasted soy flour (pH3, heat treatment of enzyme no, reaction time 1 h): not detected | Decomposition efficiency of daidzin family in roasted soy flour (pH3, heat treatment of enzyme no, reaction time 3 h): not detected | Decomposition efficiency of daidzin family in roasted soy flour (pH3, heat treatment of enzyme no, reaction time 6 h): not detected | Decomposition efficiency of daidzin family in roasted soy flour (pH3, heat treatment of enzyme yes, reaction time 6 h): not detected | Decomposition efficiency of daidzin family in defatted soybean (pH3.4, heat treatment of enzyme: no, reaction time 0 h): 41.0% | Decomposition efficiency of daidzin family in defatted soybean (pH3.4, heat treatment of enzyme: no, reaction time 1 h): 39.4% | Decomposition efficiency of daidzin family in defatted soybean (pH3.4, heat treatment of enzyme: no, reaction time 3 h): 34.5% | Decomposition efficiency of daidzin family in defatted soybean (pH3.4, heat treatment of enzyme: no, reaction time 6 h): 29.0% | Decomposition efficiency of daidzin family in defatted soybean (pH3.4, heat treatment of enzyme: yes, reaction time 6 h): 37.1% | Decomposition efficiency of daidzin family in soymilk (pH3.5, heat treatment of enzyme: no, reaction time 0 h): 55.1% | Decomposition efficiency of daidzin family in soymilk (pH3.5, heat treatment of enzyme: no, reaction time 1 h): 35.6% | Decomposition efficiency of daidzin family in soymilk (pH3.5, heat treatment of enzyme: no, reaction time 3 h): 15.1% | Decomposition efficiency of daidzin family in soymilk (pH3.5, heat treatment of enzyme: no, reaction time 6 h): 7.4% | Decomposition efficiency of daidzin family in soymilk (pH3.5, heat treatment of enzyme: yes, reaction time 6 h): 49.1% | Decomposition efficiency of daidzin family in concentrated soybean protein (pH3.7, heat treatment of enzyme: no, reaction time 0 h): not detected | Decomposition efficiency of daidzin family in concentrated soybean protein (pH3.7, heat treatment of enzyme: no, reaction time 1 h): not detected | Decomposition efficiency of daidzin family in concentrated soybean protein (pH3.7, heat treatment of enzyme: no, reaction time 3 h): not detected | Decomposition efficiency of daidzin family in concentrated soybean protein (pH3.7, heat treatment of enzyme: no, reaction time 6 h): not detected | Decomposition efficiency of daidzin family in concentrated soybean protein (pH3.7, heat treatment of enzyme: yes, reaction time 6 h): not detected | Decomposition efficiency of daidzin family in roasted soy flour (pH4, heat treatment of enzyme no, reaction time 0 h): not detected | Decomposition efficiency of daidzin family in roasted soy flour (pH4, heat treatment of enzyme no, reaction time 1 h): not detected | Decomposition efficiency of daidzin family in roasted soy flour (pH4, heat treatment of enzyme no, reaction time 3 h): not detected | Decomposition efficiency of daidzin family in roasted soy flour (pH4, heat treatment of enzyme no, reaction time 6 h): not detected | Decomposition efficiency of daidzin family in roasted soy flour (pH4, heat treatment of enzyme yes, reaction time 6 h): not detected | Decomposition efficiency of daidzin family in defatted soybean [1]: 40.7% | Decomposition efficiency of daidzin family in soymilk [1]: 56.2% | Decomposition efficiency of daidzin family in defatted soybean [2]: 40.5% | Decomposition efficiency of daidzin family in soymilk [2]: 47.4% | Decomposition efficiency of daidzin family in defatted soybean [3]: 36.7% | Decomposition efficiency of daidzin family in soymilk [3]: 33.9% | Decomposition efficiency of daidzin family in defatted soybean [4]: 30.5% | Decomposition efficiency of daidzin family in soymilk [4]: 20.3% | Decomposition efficiency of daidzin family in defatted soybean [5]: 38.4% | Decomposition efficiency of daidzin family in soymilk [5]: 49.7% | Decomposition efficiency of daidzin family in roasted soy flour (pH5, heat treatment of enzyme no, reaction time 0 h): not detected | Decomposition efficiency of daidzin family in roasted soy flour (pH5, heat treatment of enzyme no, reaction time 1 h): not detected | Decomposition efficiency of daidzin family in roasted soy flour (pH5, heat treatment of enzyme no, reaction time 3 h): not detected | Decomposition efficiency of daidzin family in roasted soy flour (pH5, heat treatment of enzyme no, reaction time 6 h): not detected | Decomposition efficiency of daidzin family in roasted soy flour (pH5, heat treatment of enzyme yes, reaction time 6 h): not detected | Decomposition efficiency of daidzin family in concentrated soybean protein (pH5.1, heat treatment of enzyme: no, reaction time 0 h): not detected | Decomposition efficiency of daidzin family in concentrated soybean protein (pH5.1, heat treatment of enzyme: no, reaction time 1 h): not detected | Decomposition efficiency of daidzin family in concentrated soybean protein (pH5.1, heat treatment of enzyme: no, reaction time 3 h): not detected | Decomposition efficiency of daidzin family in concentrated soybean protein (pH5.1, heat treatment of enzyme: no, reaction time 6 h): not detected | Decomposition efficiency of daidzin family in concentrated soybean protein (pH5.1, heat treatment of enzyme: yes, reaction time 6 h): not detected | Decomposition efficiency of daidzin family in defatted soybean (pH5.4, heat treatment of enzyme: no, reaction time 0 h): 40.7% | Decomposition efficiency of daidzin family in defatted soybean (pH5.4, heat treatment of enzyme: no, reaction time 1 h): 44.2% | Decomposition efficiency of daidzin family in defatted soybean (pH5.4, heat treatment of enzyme: no, reaction time 3 h): 41.5% | Decomposition efficiency of daidzin family in defatted soybean (pH5.4, heat treatment of enzyme: no, reaction time 6 h): 36.9% | Decomposition efficiency of daidzin family in defatted soybean (pH5.4, heat treatment of enzyme: yes, reaction time 6 h): 44.9% | Decomposition efficiency of daidzin family in soymilk (pH6.2, heat treatment of enzyme: no, reaction time 0 h): 56.2% | Decomposition efficiency of daidzin family in soymilk (pH6.2, heat treatment of enzyme: no, reaction time 1 h): 54.1% | Decomposition efficiency of daidzin family in soymilk (pH6.2, heat treatment of enzyme: no, reaction time 3 h): 46.4% | Decomposition efficiency of daidzin family in soymilk (pH6.2, heat treatment of enzyme: no, reaction time 6 h): 41.9% | Decomposition efficiency of daidzin family in soymilk (pH6.2, heat treatment of enzyme: yes, reaction time 6 h): 49.7% | Decomposition efficiency of daidzin family in roasted soy flour (pH6.5, heat treatment of enzyme no, reaction time 0 h): not detected | Decomposition efficiency of daidzin family in roasted soy flour (pH6.5, heat treatment of enzyme no, reaction time 1 h): not detected | Decomposition efficiency of daidzin family in roasted soy flour (pH6.5, heat treatment of enzyme no, reaction time 3 h): not detected | Decomposition efficiency of daidzin family in roasted soy flour (pH6.5, heat treatment of enzyme no, reaction time 6 h): not detected | Decomposition efficiency of daidzin family in roasted soy flour (pH6.5, heat treatment of enzyme yes, reaction time 6 h): not detected | Decomposition efficiency of daidzin family in concentrated soybean protein [6]: not detected | Decomposition efficiency of daidzin family in defatted soybean [6]: 43.1% | Decomposition efficiency of daidzin family in concentrated soybean protein [7]: not detected | Decomposition efficiency of daidzin family in defatted soybean [7]: 45.9% | Decomposition efficiency of daidzin family in concentrated soybean protein [8]: not detected | Decomposition efficiency of daidzin family in defatted soybean [8]: 44.0% | Decomposition efficiency of daidzin family in concentrated soybean protein [9]: not detected | Decomposition efficiency of daidzin family in defatted soybean [9]: 41.8% | Decomposition efficiency of daidzin family in concentrated soybean protein [10]: not detected | Decomposition efficiency of daidzin family in defatted soybean [10]: 41.2% | Decomposition efficiency of daidzin family in soymilk (pH7.2, heat treatment of enzyme: no, reaction time 0 h): 56.1% | Decomposition efficiency of daidzin family in soymilk (pH7.2, heat treatment of enzyme: no, reaction time 1 h): 56.4% | Decomposition efficiency of daidzin family in soymilk (pH7.2, heat treatment of enzyme: no, reaction time 3 h): 52.4% | Decomposition efficiency of daidzin family in soymilk (pH7.2, heat treatment of enzyme: no, reaction time 6 h): 48.2% | Decomposition efficiency of daidzin family in soymilk (pH7.2, heat treatment of enzyme: yes, reaction time 6 h): 48.3% | Decomposition efficiency of daidzin family in defatted soybean (pH7.8, heat treatment of enzyme: no, reaction time 0 h): 42.0% | Decomposition efficiency of daidzin family in defatted soybean (pH7.8, heat treatment of enzyme: no, reaction time 1 h): 43.6% | Decomposition efficiency of daidzin family in defatted soybean (pH7.8, heat treatment of enzyme: no, reaction time 3 h): 41.4% | Decomposition efficiency of daidzin family in defatted soybean (pH7.8, heat treatment of enzyme: no, reaction time 6 h): 38.7% | Decomposition efficiency of daidzin family in defatted soybean (pH7.8, heat treatment of enzyme: yes, reaction time 6 h): 36.7% | Decomposition efficiency of daidzin family in roasted soy flour (pH8.5, heat treatment of enzyme no, reaction time 0 h): not detected | Decomposition efficiency of daidzin family in roasted soy flour (pH8.5, heat treatment of enzyme no, reaction time 1 h): not detected | Decomposition efficiency of daidzin family in roasted soy flour (pH8.5, heat treatment of enzyme no, reaction time 3 h): not detected | Decomposition efficiency of daidzin family in roasted soy flour (pH8.5, heat treatment of enzyme no, reaction time 6 h): not detected | Decomposition efficiency of daidzin family in roasted soy flour (pH8.5, heat treatment of enzyme yes, reaction time 6 h): not detected | Decomposition efficiency of daidzin family in concentrated soybean protein (pH8.6, heat treatment of enzyme: no, reaction time 0 h): not detected | Decomposition efficiency of daidzin family in concentrated soybean protein (pH8.6, heat treatment of enzyme: no, reaction time 1 h): not detected | Decomposition efficiency of daidzin family in concentrated soybean protein (pH8.6, heat treatment of enzyme: no, reaction time 3 h): not detected | Decomposition efficiency of daidzin family in concentrated soybean protein (pH8.6, heat treatment of enzyme: no, reaction time 6 h): not detected | Decomposition efficiency of daidzin family in concentrated soybean protein (pH8.6, heat treatment of enzyme: yes, reaction time 6 h): not detected | Decomposition efficiency of daidzin family in soymilk (pH11.6, heat treatment of enzyme: no, reaction time 0 h): 52.5% | Decomposition efficiency of daidzin family in soymilk (pH11.6, heat treatment of enzyme: no, reaction time 1 h): 56.4% | Decomposition efficiency of daidzin family in soymilk (pH11.6, heat treatment of enzyme: no, reaction time 3 h): 50.4% | Decomposition efficiency of daidzin family in soymilk (pH11.6, heat treatment of enzyme: no, reaction time 6 h): 47.7% | Decomposition efficiency of daidzin family in soymilk (pH11.6, heat treatment of enzyme: yes, reaction time 6 h): 46.1%
SMILES: O=C(O)CC(=O)OC[C@H]1O[C@@H](Oc2ccc3c(=O)c(-c4ccc(O)cc4)coc3c2)[C@H](O)[C@@H](O)[C@@H]1O [malonyldaidzin, 6″-O-malonyldaidzin]
